Experimental data reported in patent US7105492B2, “Camptothecin derivatives having antitumor activity” (priority 1999, dated 2006).

What was measured:
lung carcinoma NCI H460 = assay: Antitumoral activity in nude mice implanted s.c. with NCI H460 tumour fragments (Table 1); details: for Efficacy (TVI %): evaluated 5–10 days after the last treatment
Procedure: For the in vivo studies, the solubilization was carried out in 10% DMSO in bidistilled water, being impossible the solubilization in saline, and the administration for the oral route was carried out at a volume of 10 ml/kg.
Atimic nu/nu Swiss mice (Charles River, Calco, Italia), ageing 10–12 weeks were used. The animals were maintained in laminar flow rooms, according to the guidelines of the United Kingdom Co-ordination Committee Cancer Research. Experimental protocols were approved by the Ethical Committee for animal experimentation of Istituto Nazionale per lo Studio e Cura dei Tumori.
Tumour fragments of about 2×2×2 mm coming from mice to which were inoculated s.c. 10^6 cells NCI H460/topo, were implanted s.c. bilaterally in groups of 5 mice each.
Twice a week, using a Vernier caliper, the width, minimum diameter (l), length and maximum diameter (L) of the tumors were measured, in mm. The tumour volume (mm^3) was calculated according to the formula I^2×L/2. Efficacy of the molecule was evaluated as TVI percent of the treated group versus the control group according to the formula TVI%=100−(T/C×100), wherein T is the mean value of the tumour volume of the treated group and C of control one.

L1210 = murine leukemia = assay: Antitumor activity on tumor models: L1210 leukemia, increase in life span; assay type: in vivo, mice
Text: (§1) This broad spectrum of anticancer activity was confirmed in mice transplanted with human tumor xenografts, including NSCLC (H460, A549), prostate ca. (JCA-1), glioblastoma (GBM/7), gastric ca. (MKN28), osteosarcoma (U2OS), ovarian ca. (A2780/Dx, A2780/DDP) and colon (HT29, CoBA) carcinomas as well as in murine lung cancer (M109) and leukaemia model (L1210).

HT29 colon ca = assay: Antitumor activity on tumor models: HT29; assay type: in vivo, mice
Text: as §1

topoisomerase i = molecular target: T1, topoisomerase i (Homo sapiens, UniProt P11387); assay: Persistence of topoisomerase I-mediated DNA cleavage after addition of 0.6 M NaCl; assay type: biochemical; details: for Reversibility / persistence of the DNA cleavages (in words): after sodium chloride (0.6 M), about 10 minutes; for PERSISTENCE (%) of DNA cleavage on selected sites: drug 10 μm, 20 minutes incubation, then sodium chloride (0.6 M), examined after about 10 minutes
T1 sequence (P11387 1-765): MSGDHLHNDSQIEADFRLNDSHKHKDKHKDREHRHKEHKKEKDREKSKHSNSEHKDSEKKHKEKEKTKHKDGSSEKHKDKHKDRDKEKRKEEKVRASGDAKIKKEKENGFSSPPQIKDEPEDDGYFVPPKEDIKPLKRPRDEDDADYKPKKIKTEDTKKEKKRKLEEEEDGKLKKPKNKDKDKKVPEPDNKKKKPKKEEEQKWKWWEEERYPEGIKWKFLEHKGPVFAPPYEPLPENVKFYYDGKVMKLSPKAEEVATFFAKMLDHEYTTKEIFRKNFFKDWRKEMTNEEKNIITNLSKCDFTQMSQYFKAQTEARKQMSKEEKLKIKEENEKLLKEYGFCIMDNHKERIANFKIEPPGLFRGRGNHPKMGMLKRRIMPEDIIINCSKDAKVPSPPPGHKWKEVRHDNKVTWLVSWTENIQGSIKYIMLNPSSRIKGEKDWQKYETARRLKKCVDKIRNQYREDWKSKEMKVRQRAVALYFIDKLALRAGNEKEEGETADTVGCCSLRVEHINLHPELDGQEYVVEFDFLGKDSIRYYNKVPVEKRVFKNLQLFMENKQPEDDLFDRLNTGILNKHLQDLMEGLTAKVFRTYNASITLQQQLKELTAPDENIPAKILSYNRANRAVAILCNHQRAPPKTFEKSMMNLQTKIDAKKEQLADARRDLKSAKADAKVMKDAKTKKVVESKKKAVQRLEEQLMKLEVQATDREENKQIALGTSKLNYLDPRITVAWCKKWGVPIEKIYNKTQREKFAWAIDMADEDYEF
Procedure: An important drawback of conventional camptothecins is the reversibility of the their bond in the ternary complex (drug-DNA-enzyme).
After 20 minutes of incubation of the drug in the reaction mixture containing labelled DNA and the purified enzyme, sodium chloride (0.6 M) was added with the scope of assisting the dissociation of the ternary complex.

GBM/7 glioblastoma = assay: Antitumor activity on tumor models: GBM/7; assay type: in vivo, mice
Text: as §1

CoBA colon ca = assay: Antitumor activity on tumor models: CoBA; assay type: in vivo, mice
Text: as §1

H460 = NSCLC = assay: Antitumor activity on tumor models: H460; assay type: in vivo, mice
Text: as §1

JCA-1 prostate ca = assay: Antitumor activity on tumor models: JCA-1; assay type: in vivo, mice
Text: as §1

U87 glioblastoma = assay: Antitumor activity on tumor models: U87; assay type: in vivo, mice
A2780/Dx ovarian ca = assay: Antitumor activity on tumor models: A2780/Dx; assay type: in vivo, mice; details: for TVI % / no evidence of tumor at the end of the treatment lasting for about 10 days from the last administration: A2780/Dx
Text: as §1
The high cytotoxic potency of the compounds of the present invention, herein represented in an exemplary way with one of the preferrred compounds, CPT 184, is also reflected by the potent antitumor activity. […] Moreover, the compounds of the present invention, in particular the CPT 184, were able to induce 100% CR in the A2780/DX tumor characterized by a MDR-phenotype.

IGROV-1 ovarian ca = assay: Antitumor activity on tumor models: IGROV-1; assay type: in vivo, mice
A2780 ovarian ca = assay: Antitumor activity on tumor models: A2780; assay type: in vivo, mice; details: A2780, 2 mg/kg
Text: as §1

A2780/DDP ovarian ca = assay: Antitumor activity on tumor models: A2780/DDP; assay type: in vivo, mice
Text: as §1

DU145 prostate ca = assay: Antitumor activity on tumor models: DU145; assay type: in vivo, mice; details: DU145, 2 mg/kg

SMILES: CC[C@@]1(O)C(=O)OCc2c1cc1n(c2=O)Cc2c-1nc1ccccc1c2C=NOCc1ccccc1 [CPT 172, 7-Benzyloxyiminomethylcamptothecin]
- Toxicity Body weight loss (%) (lung carcinoma NCI H460; 2 mg/kg p.o., qd × 5 × 10w): 0%
- Toxicity Lethality (lung carcinoma NCI H460; 2 mg/kg p.o., qd × 5 × 10w): 0/3
- Efficacy (TVI %) (lung carcinoma NCI H460; 2 mg/kg p.o., qd × 5 × 10w): 90%
- Efficacy (TVI %) (lung carcinoma NCI H460; 8 mg/kg p.o., q4d × 4): 77%
- Efficacy (TVI %) (lung carcinoma NCI H460; 16 mg/kg p.o., q4d × 4): 88%
- Toxicity Body weight loss (%) (lung carcinoma NCI H460; 24 mg/kg p.o., q4d × 4): 6%
- Toxicity Lethality (lung carcinoma NCI H460; 24 mg/kg p.o., q4d × 4): 0/4
- Efficacy (TVI %) (lung carcinoma NCI H460; 24 mg/kg p.o., q4d × 4): 97%
- ILS % = percent increase in life span (L1210 = murine leukemia; L1210, 25 mg/kg): > 400%
- TVI % (HT29 colon ca; HT29, 25 mg/kg): 88%
- Reversibility / persistence of the DNA cleavages (in words) (topoisomerase i): marked persistence
- PERSISTENCE (%) of DNA cleavage on selected sites (topoisomerase i): 80%
- TVI % (GBM/7 glioblastoma; GBM/7, 20 mg/kg): 93%
- no evidence of tumor at the end of the treatment lasting for about 10 days from the last administration (GBM/7 glioblastoma; GBM/7, 20 mg/kg): (3/11*)
- TVI % (GBM/7 glioblastoma; GBM/7, 25 mg/kg): 98%
- no evidence of tumor at the end of the treatment lasting for about 10 days from the last administration (GBM/7 glioblastoma; GBM/7, 25 mg/kg): (9/12*)
- TVI % (CoBA colon ca; 20 mg/kg): 84%
- TVI % (CoBA colon ca; 25 mg/kg): 93%
- TVI % (H460 = NSCLC; H460, 25 mg/kg): 97%
- TVI % (JCA-1 prostate ca; JCA-1, 20 mg/kg): 98%

SMILES: CC[C@@]1(O)C(=O)OCc2c1cc1n(c2=O)Cc2c-1nc1ccccc1c2C=NO [CPT 181, 7-hydroxyiminomethylcamptothecin, reference compound]
- Toxicity Body weight loss (%) (lung carcinoma NCI H460; 15 mg/kg p.o., q4d × 4): 0%
- Toxicity Lethality (lung carcinoma NCI H460; 15 mg/kg p.o., q4d × 4): 0/4
- Efficacy (TVI %) (lung carcinoma NCI H460; 15 mg/kg p.o., q4d × 4): 40%
- Toxicity Body weight loss (%) (lung carcinoma NCI H460; 25 mg/kg p.o., q4d × 4): 0%
- Toxicity Lethality (lung carcinoma NCI H460; 25 mg/kg p.o., q4d × 4): 0/4
- Efficacy (TVI %) (lung carcinoma NCI H460; 25 mg/kg p.o., q4d × 4): 70%
- PERSISTENCE (%) of DNA cleavage on selected sites (topoisomerase i): 28%

SMILES: CC[C@@]1(O)C(=O)OCc2c1cc1n(c2=O)Cc2c-1nc1ccccc1c2C=NOC(C)(C)C [CPT 184, 7-T-Butoxyiminomethylcamptothecin]
- Toxicity Body weight loss (%) (lung carcinoma NCI H460; 2 mg/kg p.o., q4d × 4): 0%
- Toxicity Lethality (lung carcinoma NCI H460; 2 mg/kg p.o., q4d × 4): 0/5
- Efficacy (TVI %) (lung carcinoma NCI H460; 2 mg/kg p.o., q4d × 4): 100%
- Toxicity Body weight loss (%) (lung carcinoma NCI H460; 5 mg/kg p.o., q10d × 6): 9%
- Toxicity Lethality (lung carcinoma NCI H460; 5 mg/kg p.o., q10d × 6): 0/4
- Efficacy (TVI %) (lung carcinoma NCI H460; 5 mg/kg p.o., q10d × 6): 99%
- TVI % (U87 glioblastoma; U87, 2 mg/kg): 80%
- TVI % (U87 glioblastoma; U87, 3 mg/kg): 87%
- CR (complete regressions) induced (A2780/Dx ovarian ca; A2780/DX tumor characterized by a MDR-phenotype): 100%
- TVI % (A2780/Dx ovarian ca; 2 mg/kg): 92%
- no evidence of tumor at the end of the treatment lasting for about 10 days from the last administration (A2780/Dx ovarian ca; 2 mg/kg): (1/8*)
- TVI % (A2780/Dx ovarian ca; 3 mg/kg): 100%
- no evidence of tumor at the end of the treatment lasting for about 10 days from the last administration (A2780/Dx ovarian ca; 3 mg/kg): (8/8*)
- ILS % = percent increase in life span (L1210 = murine leukemia; L1210, 2 mg/kg): > 400%
- cured mice alive 120 d from leukemia injection (L1210 = murine leukemia; L1210, 2 mg/kg): *** (>80% of cured mice alive 120 d from leukemia injection.)
- TVI % (IGROV-1 ovarian ca; IGROV-1, 2 mg/kg): 93%
- TVI % (IGROV-1 ovarian ca; IGROV-1, 3 mg/kg): 96%
- TVI % (HT29 colon ca; HT29, 2 mg/kg): 92%
- Reversibility / persistence of the DNA cleavages (in words) (topoisomerase i): marked persistence
- PERSISTENCE (%) of DNA cleavage on selected sites (topoisomerase i): 72%
- TVI % (GBM/7 glioblastoma; GBM/7, 2 mg/kg): 97%
- no evidence of tumor at the end of the treatment lasting for about 10 days from the last administration (GBM/7 glioblastoma; GBM/7, 2 mg/kg): (3/10*)
- TVI % (GBM/7 glioblastoma; GBM/7, 3 mg/kg): 98%
- no evidence of tumor at the end of the treatment lasting for about 10 days from the last administration (GBM/7 glioblastoma; GBM/7, 3 mg/kg): (2/8*)
- TVI % (CoBA colon ca; 2 mg/kg): 84%
- TVI % (CoBA colon ca; 3 mg/kg): 87%
- TVI % (A2780 ovarian ca): 100%
- no evidence of tumor at the end of the treatment lasting for about 10 days from the last administration (A2780 ovarian ca): (1/8*)
- TVI % (A2780/DDP ovarian ca; 2 mg/kg): 77%
- TVI % (A2780/DDP ovarian ca; 3 mg/kg): 90%
- TVI % (DU145 prostate ca): 95%
- TVI % (H460 = NSCLC; H460, 2 mg/kg): 99%
- no evidence of tumor at the end of the treatment lasting for about 10 days from the last administration (H460 = NSCLC; H460, 2 mg/kg): (5/8*)
- TVI % (JCA-1 prostate ca; JCA-1, 2 mg/kg): 98%
- no evidence of tumor at the end of the treatment lasting for about 10 days from the last administration (JCA-1 prostate ca; JCA-1, 2 mg/kg): (5/8*)
